Key:
human Nurr1 = human Nurr1 (Homo sapiens, UniProt P43354); test: Hybrid Gal4-Nurr1 reporter gene assay in HEK293T cells
Experimental: Nurr1 modulation was determined in a Gal4 hybrid reporter gene assays in HEK293T cells (German Collection of Microorganisms and Cell Culture GmbH, DSMZ) using pFR-Luc (Stratagene, La Jolla, CA, USA; reporter), pRL-SV40 (Promega, Madison, WI, USA: internal control) and pFA-CMV-hNurr1-LBD, coding for the hinge region and ligand binding domain of the canonical isoform of human Nurr1. Cells were cultured in Dulbecco's modified Eagle's medium (DMEM), high glucose supplemented with 10% fetal calf serum (FCS), sodium pyruvate (1 mM), penicillin (100 U/mL), and streptomycin (100 μg/mL) at 37° C., and 5% CO2 and seeded in 96-well plates (3×10+ cells/well). […] Firefly luminescence was divided by Renilla luminescence and multiplied by 1000 resulting in relative light units (RLU) to normalize for transfection efficiency and cell growth. Fold activation was obtained by dividing the mean RLU of test compound by the mean RLU of the untreated control. All samples were tested in at least three biologically independent experiments in duplicates. For dose-response curve fitting and calculation of EC50 values, the equation “[Agonist] versus response (three parameters)” was used in GraphPad Prism (version 7.00, GraphPad Software, La Jolla, CA, USA).
Similarly as described in Part A, the Nurr1 modulation was determined in a Gal4 hybrid reporter gene assay at a fixed concentration of 3 μM.

hDHODH = target: T1, hDHODH (Homo sapiens, UniProt Q02127); test: in vitro inhibition of hDHODH; assay type: biochemical
T1 construct: measured using an N-terminally truncated recombinant hDHODH enzyme
Experimental: The in vitro inhibition of hDHODH was measured using an N-terminally truncated recombinant hDHODH enzyme. Briefly, the hDHODH concentration was adjusted in a way that an average slope of approximately 0.2 AU/min served as the positive control (e.g., without inhibitor). The assay mixture contained 60 μM 2,6-dichloroindophenol, 50 μM decylubiquinone and 100 μM dihydroorotate. The hDHODH enzyme with or without at least six different concentrations of the compounds was added and measurements were performed in 50 mM TrisHCl, 150 mM KCl and 0.1% Triton X-100 at pH 8.0 and at 30° C. The reaction was started by adding dihydroorotate and measuring the absorption at 600 nm for 2 min. For the determination of the IC50 values, each data point was recorded in triplicate.

BDNF = test: Induction of BDNF in LPS-stimulated human PBMCs (ELISA); assay type: cell-based; conditions: 3 μM, supernatant 14 h

T1 sequence (Q02127 29-395): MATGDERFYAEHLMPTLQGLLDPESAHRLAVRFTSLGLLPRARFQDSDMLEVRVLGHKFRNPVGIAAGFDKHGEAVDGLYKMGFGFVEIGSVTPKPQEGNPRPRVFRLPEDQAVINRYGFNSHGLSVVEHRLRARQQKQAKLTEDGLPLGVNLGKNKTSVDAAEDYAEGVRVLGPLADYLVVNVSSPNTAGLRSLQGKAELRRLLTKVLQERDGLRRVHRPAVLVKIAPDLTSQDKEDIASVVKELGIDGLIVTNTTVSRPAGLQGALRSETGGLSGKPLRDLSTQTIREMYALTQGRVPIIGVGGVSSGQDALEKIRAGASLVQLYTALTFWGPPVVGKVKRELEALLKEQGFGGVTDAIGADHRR
Chain of human Nurr1 (P43354 360-595 limits assumed): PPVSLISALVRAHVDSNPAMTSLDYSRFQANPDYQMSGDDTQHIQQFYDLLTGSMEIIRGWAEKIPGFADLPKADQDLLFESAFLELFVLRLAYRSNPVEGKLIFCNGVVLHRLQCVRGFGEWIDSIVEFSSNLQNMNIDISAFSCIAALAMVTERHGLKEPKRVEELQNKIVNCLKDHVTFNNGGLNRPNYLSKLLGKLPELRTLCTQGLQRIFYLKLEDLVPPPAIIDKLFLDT

| SMILES | EC50 (human Nurr1) [µM] | Nurr1 agonism max. fold activation (range) (human Nurr1) | IC50 (hDHODH) [µM] | other results |
| --- | --- | --- | --- | --- |
| [2H]C([2H])([2H])Oc1cccc(-c2c(F)c(F)c(NC(=O)c3ccsc3C(=O)NCC(F)(F)F)c(F)c2F)c1 [6/44] | – | – | – | Fold Activation @ 3 μM (human Nurr1): + (+: ≥1.3-fold to <2-fold) |
| [2H]C([2H])([2H])Oc1cccc(-c2cc(F)c(NC(=O)C3=C(C(=O)NOCC)CCC3)c(F)c2)c1 [2/18] | 1 to 10 | ++ (++: ≥2-fold to <3-fold) | – | – |
| [2H]C([2H])([2H])Oc1cccc(-c2c(F)c(F)c(NC(=O)C3=C(C(=O)O)CC(F)(F)C3)c(F)c2F)c1 [6/1] | – | – | – | Fold Activation @ 3 μM (human Nurr1): ++ (++: ≥2-fold to <3-fold) |
| [2H]C([2H])([2H])Oc1cccc(-c2ccc(NC(=O)c3cscc3C(N)=O)cc2)c1 [6/53] | 0.1 to 1 | + (+: ≥1.3-fold to <2-fold) | > 10 | – |
| [2H]C([2H])([2H])Oc1cccc(-c2c(F)c(F)c(NC(=O)c3ccsc3C(=O)NCC)c(F)c2F)c1 [6/15] | 0.1 to 1 | + (+: ≥1.3-fold to <2-fold) | > 10 | – |
| [2H]C([2H])([2H])Oc1cccc(-c2c(F)c(F)c(NC(=O)c3c(C(=O)O)sc(C)c3C)c(F)c2F)c1 [6/13] | < 0.1 | ++ (++: ≥2-fold to <3-fold) | < 0.1 | – |
| [2H]C([2H])([2H])Oc1ccccc1-c1c(F)c(F)c(NC(=O)C2=C(C(=O)O)CCC2)c(F)c1F [2/27] | – | – | – | Fold Activation @ 3 μM (human Nurr1): +++ (+++: ≥3-fold) |
| [2H]C([2H])([2H])Oc1cccc(-c2cc(F)c(NC(=O)C3=C(C(=O)NOCCF)CCC3)c(F)c2)c1 [2/23] | 0.1 to 1 | + (+: ≥1.3-fold to <2-fold) | – | – |
| [2H]C([2H])([2H])Oc1cccc(-c2c(F)c(F)c(NC(=O)c3ccsc3C(=O)O)c(F)c2F)c1 [6/2] | – | – | – | Fold Activation @ 3 μM (human Nurr1): ++ (++: ≥2-fold to <3-fold) |
| [2H]C([2H])([2H])Oc1cccc(-c2ccc(NC(=O)c3cscc3C(=O)O)cc2)c1 [6/50] | < 0.1 | ++ (++: ≥2-fold to <3-fold) | 0.1 to 1 | – |
| [2H]C([2H])([2H])Oc1ccccc1-c1c(F)c(F)c(NC(=O)C2=C(C(=O)O)CSC2)c(F)c1F [6/7] | – | – | – | Fold Activation @ 3 μM (human Nurr1): ++ (++: ≥2-fold to <3-fold) |
| [2H]C(F)(F)Oc1cccc(-c2ccc(NC(=O)C3=C(C(=O)O)CCC3)c(F)c2)c1 [2/2] | 0.1 to 1 | +++ (+++: ≥3-fold) | 1 to 10 | – |
| [2H]C([2H])([2H])Oc1cccc(-c2c(F)c(F)c(NC(=O)c3cscc3C(=O)O)c(F)c2F)c1 [6/3] | – | – | – | Fold Activation @ 3 μM (human Nurr1): ++ (++: ≥2-fold to <3-fold) |
| [2H]c1cc([2H])c(-c2c(F)c(F)c(NC(=O)c3ccsc3C(=O)O)c(F)c2F)c([2H])c1OC(F)(F)F [2/25] | – | – | – | Fold Activation @ 0.3 μM (human Nurr1): +++ (+++: ≥3-fold); Fold Activation @ 3 μM (human Nurr1): ++ (++: ≥2-fold to <3-fold) |
| [2H]C([2H])([2H])Oc1cccc(-c2ccc(N(C)C(=O)C3=C(C(=O)O)CCC3)c(F)c2)c1 [reference compound] | > 10 | – | – | – |
| [2H]C([2H])([2H])Oc1cccc(-c2cc(F)c(NC(=O)c3ccsc3C(=O)O)c(F)c2)c1 [2/26] | – | – | – | Fold Activation @ 3 μM (human Nurr1): + (+: ≥1.3-fold to <2-fold) |
| [2H]C([2H])([2H])Oc1cccc(-c2cc(F)c(NC(=O)C3=C(C(=O)NS(=O)(=O)C4(C)CC4)CCC3)c(F)c2)c1 [2/21] | 1 to 10 | ++ (++: ≥2-fold to <3-fold) | – | – |
| C#CCOc1cccc(-c2c(F)c(F)c(NC(=O)c3ccsc3C(=O)NC)c(F)c2F)c1 [6/18] | – | – | – | Fold Activation @ 3 μM (human Nurr1): + (+: ≥1.3-fold to <2-fold) |
| [2H]C([2H])([2H])Oc1cccc(-c2c(F)c(F)c(NC(=O)C3=C(C(=O)O)CCC3)c(F)c2F)c1 [2/10] | < 0.1 | + (+: ≥1.3-fold to <2-fold) | – | – |
| [2H]C([2H])([2H])Oc1cccc(-c2cc(F)c(NC(=O)C3=C(C(=O)O)CCC3)c(OC([2H])([2H])[2H])c2)c1 [2/31] | 0.1 to 1 | + (+: ≥1.3-fold to <2-fold) | – | – |
| O=C(O)C1=C(C(=O)Nc2c(F)cc(-c3cccc4c3OCO4)cc2F)CCC1 [reference compound] | > 10 | – | – | – |
| [2H]C([2H])([2H])Oc1cccc(-c2c(F)c(F)c(NC(=O)c3ccsc3C(N)=O)c(F)c2F)c1 [6/14] | 0.1 to 1 | + (+: ≥1.3-fold to <2-fold) | 1 to 10 | – |
| COc1cccc(-c2ccc(NC(=O)C3=C(C(=O)NO)CCC3)c(F)c2)c1 [6/10] | – | – | – | Fold Activation @ 3 μM (human Nurr1): ++ (++: ≥2-fold to <3-fold) |
| [2H]C([2H])([2H])Oc1cccc(-c2ccc(NC(=O)c3cscc3C(=O)NCC)cc2)c1 [6/56] | 1 to 10 | +++ (+++: ≥3-fold) | > 10 | – |

| SMILES | EC50 (human Nurr1) [µM] | Nurr1 agonism max. fold activation (range) (human Nurr1) | IC50 (hDHODH) [µM] | other results |
| --- | --- | --- | --- | --- |
| [2H]C([2H])([2H])Oc1cccc(-c2ccc(NC(=O)C3=C(C(=O)O)CCC3)c3cnccc23)c1 [2/13] | 1 to 10 | +++ (+++: ≥3-fold) | – | – |
| C#CCOc1cccc(-c2ccc(NC(=O)c3cscc3C(=O)O)cc2)c1 [6/51] | 0.1 to 1 | +++ (+++: ≥3-fold) | 1 to 10 | – |
| [2H]C([2H])([2H])Oc1cccc(C23CCC(NC(=O)C4=C(C(=O)O)CCC4)(CC2)CC3)c1 [reference compound] | > 10 | – | > 50 | – |
| [N-]=[N+]=NCCOc1cccc(-c2ccc(NC(=O)C3=C(C(=O)O)CCC3)c(F)c2)c1 [4/1] | < 0.1 | +++ (+++: ≥3-fold) | – | – |
| [2H]c1c([2H])c([2H])c(-c2c(F)c(F)c(NC(=O)C3=C(C(N)=O)CC(F)(F)C3)c(F)c2F)c([2H])c1[2H] [6/46] | 0.1 to 1 | – | 1 to 10 | – |
| [2H]C([2H])([2H])Oc1cccc(-c2c(F)c(F)c(NC(=O)c3ccsc3C(=O)NCCO)c(F)c2F)c1 [6/40] | 1 to 10 | + (+: ≥1.3-fold to <2-fold) | > 10 | – |
| [2H]C([2H])([2H])Oc1cccc(-c2cc(F)c(NC(=O)C3=C(C(=O)NOCCO)CCC3)c(F)c2)c1 [2/24] | 1 to 10 | + (+: ≥1.3-fold to <2-fold) | – | – |
| [2H]C([2H])([2H])Oc1ccccc1-c1c(F)c(F)c(NC(=O)c2cscc2C(=O)O)c(F)c1F [6/5] | < 0.1 | + (+: ≥1.3-fold to <2-fold) | < 0.01 | – |
| C#CCOc1cccc(-c2ccc(NC(=O)c3cscc3C(=O)NCC)c(F)c2)c1 [6/58] | 1 to 10 | + (+: ≥1.3-fold to <2-fold) | > 10 | – |
| [2H]C([2H])([2H])Oc1cccc(-c2cc(F)c(NC(=O)C3=C(C(=O)NS(=O)(=O)C(F)F)CCC3)c(F)c2)c1 [2/22] | 1 to 10 | ++ (++: ≥2-fold to <3-fold) | – | – |
| [2H]C([2H])([2H])Oc1cccc(-c2c(F)c(F)c(NC(=O)c3ccsc3C(=O)NCC#N)c(F)c2F)c1 [6/39] | 1 to 10 | ++ (++: ≥2-fold to <3-fold) | 0.1 to 1 | – |
| [2H]C([2H])([2H])Oc1cccc(-c2c(F)c(F)c(NC(=O)C3=C(C(=O)N(C)C)CC(F)(F)C3)c(F)c2F)c1 [6/27] | 1 to 10 | + (+: ≥1.3-fold to <2-fold) | 1 to 10 | – |
| C#CCOc1cccc(-c2c(F)c(F)c(NC(=O)c3ccsc3C(=O)O)c(F)c2F)c1 [6/17] | – | – | – | Fold Activation @ 3 μM (human Nurr1): +++ (+++: ≥3-fold) |
| C#CCOc1cccc(-c2ccc(NC(=O)c3cscc3C(=O)NCC)cc2)c1 [6/57] | 1 to 10 | + (+: ≥1.3-fold to <2-fold) | > 10 | – |
| [2H]C([2H])([2H])Oc1cccc(-c2cc(F)c(NC(=O)C3=C(C(=O)NOC)CCC3)c(C#N)c2)c1 [2/29] | – | – | – | Fold Activation @ 3 μM (human Nurr1): + (+: ≥1.3-fold to <2-fold) |
| [2H]C([2H])([2H])Oc1cccc(-c2c(F)cc(NC(=O)c3ccsc3C(=O)O)cc2F)c1 [6/8] | – | – | – | Fold Activation @ 3 μM (human Nurr1): +++ (+++: ≥3-fold) |
| C#CCOc1cccc(-c2ccc(NC(=O)c3cscc3C(N)=O)cc2)c1 [6/54] | 1 to 10 | + (+: ≥1.3-fold to <2-fold) | > 10 | – |
| [2H]c1c([2H])c([2H])c(-c2c(F)c(F)c(NC(=O)c3ccsc3C(N)=O)c(F)c2F)c([2H])c1[2H] [6/45] | 0.1 to 1 | – | 1 to 10 | – |
| [2H]c1cc([2H])c(-c2ccc(NC(=O)C3=C(C(=O)O)CCC3)c(F)c2)c([2H])c1O [2/4] | 0.1 to 1 | + (+: ≥1.3-fold to <2-fold) | – | – |
| [2H]C([2H])([2H])Oc1cccc(-c2c(F)c(F)c(NC(=O)c3ccccc3C(=O)O)c(F)c2F)c1 [6/20] | < 0.1 | – | < 0.1 | – |
| C/C(O)=C(\C#N)C(=O)Nc1ccc(C(F)(F)F)cc1 [teriflunomide, reference compound] | – | – | – | BDNF production (BDNF): no effect |
| [2H]C([2H])([2H])Oc1cccc(-c2c(F)c(F)c(NC(=O)c3ccsc3C(=O)NCC(F)F)c(F)c2F)c1 [6/41] | – | – | – | Fold Activation @ 0.3 μM (human Nurr1): + (+: ≥1.3-fold to <2-fold) |
| [2H]C([2H])([2H])Oc1cccc(-c2cc(F)c(NC(=O)C3=C(/C(N)=N/O)CCC3)c(F)c2)c1 [2/20] | 0.1 to 1 | ++ (++: ≥2-fold to <3-fold) | – | – |
| C#CCOc1cccc(-c2ccc(NC(=O)c3cscc3C(=O)O)c(F)c2)c1 [6/52] | < 0.1 | ++ (++: ≥2-fold to <3-fold) | 0.1 to 1 | – |

— US20260130879A1 (IMMUNIC AG, priority 2023, published 2026)
